Like-named read-outs stand apart in the source and are kept apart here.

Consider five molecules from patent publication US20130040937A1, “INHIBITORS FOR TREATING AND PREVENTING HEART FAILURE IN FELINES” (BOEHRINGER INGELHEIM VETMEDICA GMBH, priority 2011, published 2013).

In data set [1] the test system is left atrial systolic and global function. Conditions: feline CMP; cited from earlier work.
A short description of data set [2]: Pharmacokinetics in healthy cats, once daily po. for 4 days. In kind it is in vivo. Conditions: cat. The protocol: (§1) Cilobradine chloride salt was administered at a dose of 5, 10 and 20 mg per subject in the form of capsules. These doses are equal to 0.07, 0.14, and 0.28 mg/kg cilobradine chloride salt assuming a body weight of 70 kg. […] Cilobradine hydrochloride was administered at a dose of 0.1 mg/kg and 0.3 mg/kg as a suspension. […] There are some differences between cats and humans in terms of pharmacokinetics of cilobradine, which might be related to differences in absorption, metabolisation, distribution, or excretion.

A short description of the next data set: Lipophilicity profile. Conditions: neutral pH versus acidic pH. It is filed as physicochemical. From the text: Usually, EC/HPMC films show a sustained release behaviour that is independent of pH. […] This profile, together with the coating applied, may have led to a slower release.
The subject of data set [3] is heart rate. In words: Pharmacodynamic profile (telemetric heart rate) in the conscious cat. It is filed as in vivo. The protocol: as §1
The pharmacodynamic profile of cilobradine hydrochloride was characterised at two dose levels administered by the oral route, once and twice daily, in the conscious cat. The study involved 2 groups of 3 male European Short Hair cats weighing between 4.15 kg and 4.75 kg on the day of the first treatment. Each cat was dosed with cilobradine hydrochloride once (sid) and twice (bid) daily successively at 0.1 or 0.3 mg/kg in a cross over-design. Each treatment was separated by an interval of 24 hours (sid) or 12 hours (bid). A washout period of 7 days was scheduled between the 2 dosing periods. Cats were previously instrumented with telemetric transmitters for heart rate measurements. Telemetric measurements were recorded for 15 seconds every 5 minutes at a sampling rate of 500 Hz on D-2, D-1, from D0 up to D9 and from D16 up to D25 except for D4 and D20 during blood sampling.

Data set [4] is described as follows: Pharmacokinetics in healthy human male subjects, once daily po. for 7 days. In kind it is in vivo. The protocol:
as §1

The subject of data set [5] is healthy cats and cats with hypertrophic cardiomyopathy. Conditions: cited from earlier work.
In another data set the test system is healthy cats. Put plainly: Effects on vasomotor tone, myocardial contractility and lusitropy in healthy cats. It is filed as in vivo, cat. Particulars: therapeutically relevant doses. An excerpt:
“Funny If current inhibitors”, also referred to as “If channel blockers” or “If current inhibitors” herein, relate to If inhibitors including pharmaceutically acceptable salts thereof, which selectively block hyperpolarization-activated cyclic nucleotide-gated channels (HCN) in cardiac conductive tissue, channels responsible for the transmembrane current known as If. It is through blockade of this current that If channel blockers are assumed to produce their specific bradycardic effect. HCN channels are widely distributed in the nervous system and in the eye they mediate the current known as Ih. The effect of zatebradine and cilobradine on the Ih channel has also been investigated (See Neuroscience, Vol. 59(2), pp. 363-373, 1994 for zatebradine, and British Journal of Pharmacology, Vol. 125, pp. 741-750, 1998 for cilobradine). […] Cilobradine in particular reduces the heart rate in the sinoatrial node of the heart by selective blockade of If channels (“funny channels”) through a direct interaction with predominantly HCN4 channels. This blockage is potent and has a dosage and voltage dependency. Because of the high selectivity to the If current, effects on vasomotor tone or myocardial contractility and lusitropy are not observed at therapeutically relevant doses in healthy cats. […]

For data set [6], the system named is cats suffering from HF due to HCM. Put plainly: Blinded, controlled, randomised efficacy field study in HCM cats. In kind it is in vivo. Further details: key to Right heart enlargement (score): Score 1: normal size; Score 2: mild enlargement; Score 3: moderate enlargement; Score 4: severe enlargement. Particulars: HCM cat; for Right heart enlargement (score): X-ray. The protocol: A blinded, controlled, randomised, efficacy field study was conducted with HCM cats receiving cilobradine (initial dose: 0.2 mg/kg po. twice daily) or a placebo (dose: 0.0 mg/kg po. twice daily) for 85 days. The dose of cilobradine could be adjusted during the study (dose range 0.1-0.5 mg/kg per-oral twice daily). The administration of furosemide was allowed in both groups. All cats were hospitalised in the first week of the study (study days 1-6), and they were allowed to go home afterwards (study days 7-85).
Cats with a diagnosis of HCM were included in the study. The diagnosis of HCM was established by using echocardiography showing global, regional or segmental thickness of the interventricular septum and/or left ventricular free-wall in diastole greater than 6 mm. Further inclusion criteria were: systolic blood pressure less than 170 mmHg; serum thyroxine (T4) was normal; and body weight was higher than 2 kg.
The owner provided a signed informed consent for the animal to enter the study. Cats that suffered from heart disease were scored using a 4 point score adapted from the ISACHC as follows: • Score 1: presence of heart disease associated with no clinical signs but detectable (e,g, auscultation, echocardiography and radiography); • Score 2: clinical signs of heart failure evident and adversely affect the quality of life. Typical signs include dyspnea/tachypnea, pulmonary congestion, weakness/lethargy, anorexia, exercise intolerance; • Score 3: clinical signs of advance heart failure immediately obvious. These clinical signs could have included respiratory distress, marked ascites/pulmonary congestion, profound exercise intolerance or hypoperfusion at rest; and • Score 4: severe cases: subject was moribund, suffered from cardiogenic shock or acute posterior paresis/paralysis. Hospitalization was mandatory.
Cats having one or more of the following criteria were excluded: • a) The cat had received one or more of the following pretreatments: calcium channel blockers, e.g. diltiazem, angiotensin converting enzyme inhibitors, f3-blockers, acetylsalicylic acid, or digitales glycosides. (Cats pre-treated with furosemide alone were allowed to be included in either of the groups if they matched all inclusion criteria above.) • b) Elevated serum T4 level; • c) Elevated serum blood urea nitrogen (BUN) levels higher than 90 mg/dL or elevated serum creatinine levels higher than 3 mg/dL; • d) Systolic arterial blood pressure greater than or equal to 170 mmHg; • e) Dilated cardiomyopathy (DCM); • f) Suffered from heart disease with a score of 4 (adapted ISACHC score) or with no documented episode of heart failure (score 2 or 3) within 30 days before enrollment; • g) Fixed aortic stenosis; • h) Were pregnant or lactating queens; • i) Were nursing kittens; • j) Body weight less than 2 kg; or • k) Presence of sinus bradycardia (heart rate less than 120 bpm at consultation).
The cat's quality of life was assessed on a daily basis using the following grading system: 1 (better), 2 (equal), 3 (worse).
Furthermore, right heart enlargement was assessed by X-ray using the following scoring system: Score 1: normal size; Score 2: mild enlargement; Score 3: moderate enlargement; and Score 4: severe enlargement. Mild enlargement of the right side of the heart was observed using X-ray in the cat receiving a placebo at the end of the study. In contrast, the right side of the heart was normal in the cat receiving cilobradine throughout the study (see Table 10).

Another data set relates to Ih channel. Conditions: literature (Neuroscience 1994; Br J Pharmacol 1998); cited from earlier work.
Data set [7] deals with heart rate. Put plainly: Heart rate after oral administration in humans. Conditions: over 9 h following administration, 5, 10, 20 mg per subject. It is filed as in vivo, human. The protocol:
as §1

Take `CC(C)NCC(O)COc1ccc(CC(N)=O)cc1` (stereo not shown) [atenolol]: in data set [1], the “left atrial systolic and global function” value was “significantly decreased”.

Consider `COc1ccc(CCN2CCC[C@H](CN3CCc4cc(OC)c(OC)cc4CC3=O)C2)cc1OC.Cl` [cilobradine hydrochloride], for which the Half-life turned out to be 3.52 h in data set [2] (0.1 mg/kg, suspension, once daily po. 4 days); 2.53 h in [2] (0.3 mg/kg, suspension, once daily po. 4 days); 13.9 h in data set [4] (human, 5 mg/subject (0.07 mg/kg), capsules, once daily po. 7 days); 13.0 h in data set [4] (human, 10 mg/subject (0.14 mg/kg), capsules, once daily po. 7 days); 10.1 h in data set [4] (human, 20 mg/subject (0.28 mg/kg), capsules, once daily po. 7 days). For the same molecule, the lipophilicity profile entry in “Lipophilicity profile” is “slightly more lipophilic at neutral pH values”. In the data set on heart rate [3] (conscious cat, oral 0.1 and 0.3 mg/kg per day, sid and bid), the bradycardia result was “dose-dependent bradycardia”.

For the molecule `COc1cc2c(cc1OC)CC(=O)N(CCCN(C)C[C@H]1Cc3cc(OC)c(OC)cc31)CC2` [ivabradine, 3-[3-[[[(7S)-3,4-dimethoxybicyclo[4.2.0]octa-1,3,5-trien-7-yl]methyl]methylamino]propyl]-1,3,4,5-tetrahydro-7,8-dimethoxy-2H-3-benzazepin-2-one], in data set [5] (healthy cats), the heart rate reduction entry is given as “significant heart rate reduction” and the “negative chronotropic effect, dose relation” value is on record as “dose-dependency”. Besides, in data set [5] (subclinical HCM cats), the heart rate reduction result is “significant heart rate reduction”.

As to `COc1ccc(CCN2CCC[C@H](CN3CCc4cc(OC)c(OC)cc4CC3=O)C2)cc1OC` [Cilobradine, (+)-3-[(N-(2-(3,4-dimethoxy-phenyl)ethyl)-piperidin-3-(S)-yl)-methyl]-(7,8-dimethoxy-1,3,4,5-tetrahydro-2H-3-benzazepin-2-on)], the Half-life in [2] (in vivo, healthy cats, once daily po. for 4 days, 0.1 and 0.3 mg/kg, read-out: half-life) fell in the range of 2.53 to 3.52 h; in data set [4] (in vivo, healthy human male subjects, once daily po. for 7 days, 5-20 mg per subject, read-out: half-life), 10.1 to 13.9 h. Besides, the “effects on vasomotor tone or myocardial contractility and lusitropy” value with healthy cats was “not observed”. For the same molecule, the “reduction of the interventricular septal thickness in systole compared to placebo” value in data set [6] is on record as “considerably greater”. The “Interventricular septal thickness in systole” value was 11.7 mm in [6] (SD 0 (baseline)) and 7.5 mm in [6] (SD 84). In addition, the Heart rate in data set [6] (SD 0 (baseline), initial dose 0.2 mg/kg po. twice daily) came to 152 beats per minutes; in data set [6] (SD 7), 120 beats per minutes; in data set [6] (SD 28), 144 beats per minutes; in data set [6] (SD 56) it was 124 beats per minutes; in [6] (SD 84), 210 beats per minutes. For the same molecule, the “Right heart enlargement (score)” value in [6] (SD 0 (baseline)) and in data set [6] (SD 84) was 1 in each case. Also, the quality of life entry in data set [6] (daily owner grading 1 (better), 2 (equal), 3 (worse), FIG. 1) is reported as “almost continuous improvement”. For the same molecule, the “heart rate (in words)” value in [6] (study period, versus placebo cat) is listed as “reduced throughout the study”. The “right side of the heart (X-ray)” value in data set [6] (throughout the study) is recorded as “normal”. For the same molecule, in the data set with Ih channel, the “block of Ih” value is on record as “can also be blocked”. Moreover, the heart rate reduction entry with heart rate [7] is reported as “dose dependent heart rate reduction”; in the data set on heart rate [3] (cats, over 9 h following administration, 0.1 and 0.3 mg/kg) it was “dose dependent heart rate reduction”.

Regarding `COc1ccc(CCN(C)CCCN2CCc3cc(OC)c(OC)cc3CC2=O)cc1OC` [zatebradine, reference compound], in the data set on Ih channel, the “block of Ih” value is recorded as “can also be blocked”.
